From EP0126813A1, “Process for preparing imidazole compounds” (Newport Pharmaceuticals International, Inc., priority 1983, dated 1984)

How the values were obtained:
Lymphocyte [1] = test: LPS induced lymphocyte proliferation (mitogen induced lymphocyte proliferation); format: cell-based; conditions: for X̄ cpm: control 7044 cpm
Excerpt: In Table 1 the effect of NPT 15459 on LPS Induced Proliferation is described.

[2] = test system: SRBC Induced Antibody Formation; test: SRBC induced antibody formation; format: in vivo; conditions: for X̄ PFC/10^6 Cells: saline control 53
Excerpt: In Table 2 the SRBC Induced Antibody Formation procedure employed was that shown in Simon EPO application 0036077 page 46.

[3] = Solubility (summary of chemical properties); format: physicochemical
Lymphocyte [4] = test: Con A induced lymphocyte proliferation (mitogen induced lymphocyte proliferation); format: cell-based; conditions: for X̄ cpm: control 35,059 cpm
Excerpt: In Table 1 the effect of NPT 15459 on con A Induced Proliferation is described. The procedure is described in Simon U.S. patent 4,221,909, column 24, line 12 to column 25, line 10.

[5] = Lymphocyte, 5.0 µg/ml, read-out: Percent Change from Control
[6] = Lymphocyte, 10.0 µg/ml, read-out: Percent Change from Control

## CCCCCC[C@H]([C@H](C)O)n1cnc(C(N)=O)c1N (relative stereo) [NPT 15459, erythro-3-(2-hydroxy-3-nonyl)-4-amino-imidazole-5-carboxamide]
Lymphocyte [1]; 5.0 µg/ml
  X̄ cpm: 4128 cpm
Lymphocyte [1]; 10.0 µg/ml
  X̄ cpm: 2449 cpm
Lymphocyte [1]; .02 µg/ml
  X̄ cpm: 6184 cpm
Lymphocyte [1]; .5 µg/ml
  X̄ cpm: 6676 cpm
Lymphocyte [1]; [5]
  inhibition at 5 µg/mL: 42%
Lymphocyte [1]; [6]
  inhibition at 10 µg/mL: 66%
Lymphocyte [1]; Lymphocyte, .02 µg/ml, read-out: Percent Change from Control
  inhibition at 0.02 µg/mL: 12%
Lymphocyte [1]; Lymphocyte, .5 µg/ml, read-out: Percent Change from Control
  inhibition at 0.5 µg/mL: 6%
[2]; 5.0 mg/kg
  Percent Change from Control: +24%
  X̄ PFC/10^6 Cells: 66 PFC/10^6 Cells
[2]; .05 mg/kg
  Percent Change from Control: +196%
  X̄ PFC/10^6 Cells: 157 PFC/10^6 Cells
[2]; .5 mg/kg
  Percent Change from Control: +126%
  X̄ PFC/10^6 Cells: 120 PFC/10^6 Cells
[3]; HCl (Aq), acetic acid, methanol, ethanol
  Solubility: very soluble
[3]; benzene, water
  Solubility: insoluble
[3]; isopropanol
  Solubility: soluble
Lymphocyte [4]; 5.0 µg/ml
  X̄ cpm: 20,095 cpm
Lymphocyte [4]; 10.0 µg/ml
  X̄ cpm: 12,736 cpm
Lymphocyte [4]; .020 µg/ml
  X̄ cpm: 35,747 cpm
Lymphocyte [4]; .500 µg/ml
  X̄ cpm: 30,920 cpm
Lymphocyte [4]; [5]
  inhibition at 5 µg/mL: 43%
Lymphocyte [4]; [6]
  inhibition at 10 µg/mL: 65%
Lymphocyte [4]; Lymphocyte, .020 µg/ml, read-out: Percent Change from Control
  inhibition at 0.02 µg/mL: -2%
Lymphocyte [4]; Lymphocyte, .500 µg/ml, read-out: Percent Change from Control
  inhibition at 0.5 µg/mL: 12%
